Reference: patent publication US6355785B1, “Guanosine-rich oligonucleotide integrase inhibitors” (Aronex Pharmaceuticals, Inc., priority 1993, dated 2002)
Read-outs that look alike come from different tables or passages of the source.

System: HIV-1 infected PBMCs

5′-gtggtgggtgggtgggt-3′ [T30177] (GTGGTGGGTGGGTGGGT; phosphorothioate termini, further chemistry not given here)
% CD4 (IIIB, drug 10.0 μM): 27% | % CD8 (IIIB, drug 10.0 μM): 83% | CD4/CD8 Ratio (IIIB, drug 10.0 μM): 0.33 | % CD4 (MN, drug 0.1 μM): 5% | % CD8 (MN, drug 0.1 μM): 95% | CD4/CD8 Ratio (MN, drug 0.1 μM): 0.05 | % CD4 (MN, drug 1.0 μM): 18% | % CD8 (MN, drug 1.0 μM): 86% | CD4/CD8 Ratio (MN, drug 1.0 μM): 0.21 | % CD4 (MN, drug 5.0 μM): 25% | % CD8 (MN, drug 5.0 μM): 81% | CD4/CD8 Ratio (MN, drug 5.0 μM): 0.31 | % CD4 (MN, drug 10.0 μM): 26% | % CD8 (MN, drug 10.0 μM): 80% | CD4/CD8 Ratio (MN, drug 10.0 μM): 0.33 | % CD4 (N. Amer. #1, drug 0.1 μM): 21% | % CD8 (N. Amer. #1, drug 0.1 μM): 84% | CD4/CD8 Ratio (N. Amer. #1, drug 0.1 μM): 0.25 | % CD4 (N. Amer. #1, drug 1.0 μM): 26% | % CD8 (N. Amer. #1, drug 1.0 μM): 80% | CD4/CD8 Ratio (N. Amer. #1, drug 1.0 μM): 0.33 | % CD4 (N. Amer. #1, drug 5.0 μM): 27% | % CD8 (N. Amer. #1, drug 5.0 μM): 81% | CD4/CD8 Ratio (N. Amer. #1, drug 5.0 μM): 0.33 | % CD4 (N. Amer. #1, drug 10.0 μM): 29% | % CD8 (N. Amer. #1, drug 10.0 μM): 81% | CD4/CD8 Ratio (N. Amer. #1, drug 10.0 μM): 0.36 | % CD4 (N. Amer. #2, drug 0.1 μM): 4% | % CD8 (N. Amer. #2, drug 0.1 μM): 98% | CD4/CD8 Ratio (N. Amer. #2, drug 0.1 μM): 0.04 | % CD4 (N. Amer. #2, drug 1.0 μM): 5% | % CD8 (N. Amer. #2, drug 1.0 μM): 95% | CD4/CD8 Ratio (N. Amer. #2, drug 1.0 μM): 0.05 | % CD4 (N. Amer. #2, drug 5.0 μM): 28% | % CD8 (N. Amer. #2, drug 5.0 μM): 82% | CD4/CD8 Ratio (N. Amer. #2, drug 5.0 μM): 0.34 | % CD4 (N. Amer. #2, drug 10.0 μM): 27% | % CD8 (N. Amer. #2, drug 10.0 μM): 84% | CD4/CD8 Ratio (N. Amer. #2, drug 10.0 μM): 0.32 | % CD4 (RF, drug 0.1 μM): 10% | % CD8 (RF, drug 0.1 μM): 92% | CD4/CD8 Ratio (RF, drug 0.1 μM): 0.11 | % CD4 (RF, drug 1.0 μM): 26% | % CD8 (RF, drug 1.0 μM): 82% | CD4/CD8 Ratio (RF, drug 1.0 μM): 0.32 | % CD4 (RF, drug 5.0 μM): 31% | % CD8 (RF, drug 5.0 μM): 83% | CD4/CD8 Ratio (RF, drug 5.0 μM): 0.37 | % CD4 (RF, drug 10.0 μM): 29% | % CD8 (RF, drug 10.0 μM): 85% | CD4/CD8 Ratio (RF, drug 10.0 μM): 0.34 | % CD4 (SE Asia isolate, drug 0.1 μM): 2% | % CD8 (SE Asia isolate, drug 0.1 μM): 99% | CD4/CD8 Ratio (SE Asia isolate, drug 0.1 μM): 0.02 | % CD4 (SE Asia isolate, drug 1.0 μM): 12% | % CD8 (SE Asia isolate, drug 1.0 μM): 90% | CD4/CD8 Ratio (SE Asia isolate, drug 1.0 μM): 0.13 | % CD4 (SE Asia isolate, drug 5.0 μM): 29% | % CD8 (SE Asia isolate, drug 5.0 μM): 82% | CD4/CD8 Ratio (SE Asia isolate, drug 5.0 μM): 0.35 | % CD4 (SE Asia isolate, drug 10.0 μM): 29% | % CD8 (SE Asia isolate, drug 10.0 μM): 82% | CD4/CD8 Ratio (SE Asia isolate, drug 10.0 μM): 0.35
